Assay results as given in ChEMBL document CHEMBL1140913, “Discovery and structure-activity relationships of trisubstituted pyrimidines/pyridines as novel calcium-sensing receptor antagonists” (J Med Chem, 2009).
Values after ≈ are worked out from the molar mass of the structure shown.

Target: T1, Extracellular calcium-sensing receptor (Homo sapiens, UniProt P41180)
T1 sequence (P41180 whole entry): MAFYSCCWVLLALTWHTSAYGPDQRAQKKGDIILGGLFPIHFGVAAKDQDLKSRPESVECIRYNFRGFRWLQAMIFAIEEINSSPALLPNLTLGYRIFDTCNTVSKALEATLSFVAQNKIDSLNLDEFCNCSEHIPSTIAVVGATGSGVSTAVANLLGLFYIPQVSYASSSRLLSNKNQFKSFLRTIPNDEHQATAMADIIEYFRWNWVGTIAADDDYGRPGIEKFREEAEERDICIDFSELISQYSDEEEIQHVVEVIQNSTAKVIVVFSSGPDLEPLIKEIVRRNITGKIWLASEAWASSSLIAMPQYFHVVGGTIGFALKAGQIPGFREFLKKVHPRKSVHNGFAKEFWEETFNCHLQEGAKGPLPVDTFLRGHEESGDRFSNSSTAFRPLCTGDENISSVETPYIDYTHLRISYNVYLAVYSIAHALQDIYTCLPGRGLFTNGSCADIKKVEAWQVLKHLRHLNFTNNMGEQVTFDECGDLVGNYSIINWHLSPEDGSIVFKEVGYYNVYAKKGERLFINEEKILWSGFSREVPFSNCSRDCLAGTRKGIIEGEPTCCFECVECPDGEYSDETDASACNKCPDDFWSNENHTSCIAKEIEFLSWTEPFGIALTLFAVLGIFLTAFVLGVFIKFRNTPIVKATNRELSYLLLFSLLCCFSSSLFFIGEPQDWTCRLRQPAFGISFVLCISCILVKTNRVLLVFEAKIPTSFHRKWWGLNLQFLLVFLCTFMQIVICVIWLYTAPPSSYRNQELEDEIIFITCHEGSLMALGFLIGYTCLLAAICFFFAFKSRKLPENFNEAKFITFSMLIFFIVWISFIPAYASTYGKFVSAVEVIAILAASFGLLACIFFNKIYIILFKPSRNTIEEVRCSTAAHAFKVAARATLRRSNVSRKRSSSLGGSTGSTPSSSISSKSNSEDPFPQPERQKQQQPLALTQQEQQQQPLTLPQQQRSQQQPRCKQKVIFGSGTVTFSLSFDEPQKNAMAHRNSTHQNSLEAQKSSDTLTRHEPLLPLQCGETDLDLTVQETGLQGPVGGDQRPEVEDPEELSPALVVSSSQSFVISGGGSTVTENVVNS
Assay: Antagonist activity at calcium-sensing receptor expressed in HEK293 cells by FLIPR assay
Format: functional, cell-based

**Q.** Which IC50 does the source give for `COc1cc(-c2nc(NCc3ccc4c(c3)OCO4)ccc2C(=O)NCCOc2ccccc2)cc(OC)c1OC` here?
**A.** 130 nM

**Q.** With `COc1cc(-c2nc(NCc3ccccc3C)ncc2C(=O)NCCOc2ccccc2)cc(OC)c1OC` as the compound, how does the IC50 read?
**A.** 10000 nM

**Q.** For `COc1cc(-c2nc(NCc3ccccc3Cl)ncc2C(=O)NCCOc2ccccc2)cc(OC)c1OC`, which IC50 is on record?
**A.** 4900 nM

**Q.** With `COc1cc(-c2nc(NCc3ccccc3)ncc2C(=O)NCCOc2ccccc2)cc(OC)c1OC` as the compound, how does the IC50 read?
**A.** 730 nM

**Q.** Which IC50 does the source give for `COc1cc(-c2nc(NCCC(C)C)ncc2C(=O)NCCOc2ccccc2)cc(OC)c1OC` here?
**A.** 2200 nM

**Q.** Which IC50 does the source give for `COc1ccc(-c2nc(NCc3ccc4c(c3)OCO4)ncc2C(=O)NC(C)Cc2ccc(Cl)cc2)c(OC)n1` (stereo not drawn) here?
**A.** 150 nM

**Q.** With `CCN(Cc1ccccc1)c1ccc(C(=O)NCCOc2ccccc2)c(-c2cc(OC)c(OC)c(OC)c2)n1` as the compound, how does the IC50 read?
**A.** 154 nM

**Q.** For `CCN(Cc1ccccc1)c1ccc(C(=O)NCCOc2ccccc2)c(-c2ccc(OC)nc2OC)n1`, which IC50 is on record?
**A.** 1050 nM

**Q.** With `COc1cc(-c2nc(N[C@H](CO)Cc3ccccc3)ccc2C(=O)NCCOc2ccccc2)cc(OC)c1OC` as the compound, how does the IC50 read?
**A.** 76 nM

**Q.** With `COc1ccc(-c2nc(NCc3ccc4c(c3)OCO4)ccc2C(=O)NCCOc2ccccc2)c(OC)n1` as the compound, how does the IC50 read?
**A.** 60 nM

**Q.** For `COc1ccc(-c2nc(NCc3ccc4c(c3)OCO4)ncc2C(=O)N2CCc3ccccc3C2)c(OC)n1`, which IC50 is on record?
**A.** 360 nM

**Q.** Which IC50 does the source give for `COc1ccc(-c2nc(NCc3ccc4c(c3)OCO4)ncc2C(=O)NCCOc2ccccc2)c(OC)n1` here?
**A.** 220 nM

**Q.** Which IC50 does the source give for `COc1ccc(-c2nc(NCc3cccc(Cl)c3)ccc2C(=O)NCCOc2ccccc2)c(OC)n1` here?
**A.** 197 nM

**Q.** With `COc1cc(OC)cc(-c2nc(N(C)Cc3ccccc3)ncc2C(=O)NCCOc2ccccc2)c1` as the compound, how does the IC50 read?
**A.** > 30000 nM

**Q.** Which IC50 does the source give for `CCN(Cc1ccccc1)c1ncc(C(=O)NCCOc2ccccc2)c(-c2ccc(OC)nc2OC)n1` here?
**A.** 360 nM

**Q.** With `CCN(Cc1ccccc1)c1ncc(C(=O)NCCCc2ccccc2)c(-c2cc(OC)c(OC)c(OC)c2)n1` as the compound, how does the IC50 read?
**A.** 2100 nM

**Q.** With `CCN(Cc1ccccc1)c1ncc(C(=O)NCCc2ccccc2)c(-c2cc(OC)c(OC)c(OC)c2)n1` as the compound, how does the IC50 read?
**A.** > 30000 nM

**Q.** Which IC50 does the source give for `COc1cc(-c2nc(N[C@@H](CO)Cc3ccccc3)ncc2C(=O)NCCOc2ccccc2)cc(OC)c1OC` here?
**A.** > 30000 nM

**Q.** For `CN(Cc1ccccc1)c1ncc(C(=O)NCCOc2ccccc2)c(-c2ccc(C(F)(F)F)cc2)n1`, which IC50 is on record?
**A.** 18900 nM

**Q.** Which IC50 does the source give for `COc1ccc(-c2nc(N(C)Cc3ccccc3)ncc2C(=O)NCCOc2ccccc2)cc1` here?
**A.** > 30000 nM

**Q.** Which IC50 does the source give for `COc1cccc(-c2nc(N(C)Cc3ccccc3)ncc2C(=O)NCCOc2ccccc2)c1` here?
**A.** > 30000 nM

**Q.** With `COc1ccccc1-c1nc(N(C)Cc2ccccc2)ncc1C(=O)NCCOc1ccccc1` as the compound, how does the IC50 read?
**A.** > 30000 nM

**Q.** Which IC50 does the source give for `CCN(Cc1ccccc1)c1ncc(C(=O)NCCOc2ccccc2)c(C2CCCCC2)n1` here?
**A.** > 30000 nM

**Q.** Which IC50 does the source give for `CCN(Cc1ccccc1)c1ncc(C(=O)NCCOc2ccccc2)c(-c2ccccc2)n1` here?
**A.** > 30000 nM

**Q.** Which IC50 does the source give for `COc1ccc(-c2nc(N(C)Cc3ccccc3)ncc2C(=O)NCCOc2ccccc2)cc1OC` here?
**A.** 6900 nM

**Q.** Which IC50 does the source give for `COc1cc(-c2nc(NCc3ccccn3)ncc2C(=O)NCCOc2ccccc2)cc(OC)c1OC` here?
**A.** > 30000 nM

**Q.** For `COc1cccc(CNc2ncc(C(=O)NCCOc3ccccc3)c(-c3cc(OC)c(OC)c(OC)c3)n2)c1`, which IC50 is on record?
**A.** 340 nM

**Q.** With `COc1cc(-c2nc(NCc3cccc(Cl)c3)ncc2C(=O)NCCOc2ccccc2)cc(OC)c1OC` as the compound, how does the IC50 read?
**A.** 70 nM

**Q.** For `COc1cc(-c2nc(NCCc3cccnc3)ncc2C(=O)NCCOc2ccccc2)cc(OC)c1OC`, which IC50 is on record?
**A.** > 30000 nM

**Q.** For `COc1cc(-c2nc(NCCc3ccccn3)ncc2C(=O)NCCOc2ccccc2)cc(OC)c1OC`, which IC50 is on record?
**A.** > 30000 nM

**Q.** Which IC50 does the source give for `COc1cccc(CCNc2ncc(C(=O)NCCOc3ccccc3)c(-c3cc(OC)c(OC)c(OC)c3)n2)c1` here?
**A.** 1000 nM

**Q.** For `COc1ccccc1CCNc1ncc(C(=O)NCCOc2ccccc2)c(-c2cc(OC)c(OC)c(OC)c2)n1`, which IC50 is on record?
**A.** 340 nM

**Q.** Which IC50 does the source give for `COc1cc(-c2nc(N(C)CCc3ccccc3)ncc2C(=O)NCCOc2ccccc2)cc(OC)c1OC` here?
**A.** 1500 nM

**Q.** With `COc1cc(-c2nc(NCCc3ccccc3)ncc2C(=O)NCCOc2ccccc2)cc(OC)c1OC` as the compound, how does the IC50 read?
**A.** 400 nM

**Q.** Which IC50 does the source give for `COc1cc(-c2nc(N[C@H](CO)Cc3ccccc3)ncc2C(=O)NCCOc2ccccc2)cc(OC)c1OC` here?
**A.** 150 nM

**Q.** Which IC50 does the source give for `CCN(Cc1ccccc1)c1ncc(C(=O)NCCOc2ccccc2)c(-c2cc(OC)c(OC)c(OC)c2)n1` here?
**A.** 200 nM

**Q.** With `COc1cc(-c2nc(NCc3ccc4c(c3)OCO4)ncc2C(=O)NCCOc2ccccc2)cc(OC)c1OC` as the compound, how does the IC50 read?
**A.** 150 nM

**Q.** For `COc1cc(-c2nc(N(C)Cc3ccccc3)ncc2C(=O)NCCOc2ccccc2)cc(OC)c1OC`, which IC50 is on record?
**A.** 470 nM

**Q.** With `CCN(Cc1ccccc1)c1ncc(C(=O)NCCCCc2ccccc2)c(-c2cc(OC)c(OC)c(OC)c2)n1` as the compound, how does the IC50 read?
**A.** 1800 nM

**Q.** With `COc1cc(-c2nc(NCc3cccc(Cl)c3)ccc2C(=O)NCCOc2ccccc2)cc(OC)c1OC` as the compound, how does the IC50 read?
**A.** 162 nM

**Q.** Which IC50 does the source give for `COc1ccc(-c2nc(N[C@H](CO)Cc3ccccc3)ccc2C(=O)NCCOc2ccccc2)c(OC)n1` here?
**A.** 140 nM

**Q.** With `COc1cc(-c2nc(NCc3cccnc3)ncc2C(=O)NCCOc2ccccc2)cc(OC)c1OC` as the compound, how does the IC50 read?
**A.** > 30000 nM

**Q.** Which IC50 does the source give for `COc1ccc(CNc2ncc(C(=O)NCCOc3ccccc3)c(-c3cc(OC)c(OC)c(OC)c3)n2)cc1` here?
**A.** 3100 nM

**Q.** Which IC50 does the source give for `COc1ccc(CCNc2ncc(C(=O)NCCOc3ccccc3)c(-c3cc(OC)c(OC)c(OC)c3)n2)cc1` here?
**A.** 2800 nM

Test system: not listed separately
Assay: Aqueous solubility at pH 4.5
Format: physicochemical

**Q.** Which solubility does the source give for `CCN(Cc1ccccc1)c1ncc(C(=O)NCCOc2ccccc2)c(-c2cc(OC)c(OC)c(OC)c2)n1` here?
**A.** < 1 µg/mL

**Q.** For `COc1ccc(-c2nc(N[C@H](CO)Cc3ccccc3)ccc2C(=O)NCCOc2ccccc2)c(OC)n1`, which solubility is on record?
**A.** 36 µg/mL (≈ 68.1 µM)

Test system: not listed separately
Assay: Aqueous solubility at pH 6.5
Format: physicochemical

**Q.** With `CCN(Cc1ccccc1)c1ncc(C(=O)NCCOc2ccccc2)c(-c2cc(OC)c(OC)c(OC)c2)n1` as the compound, how does the solubility read?
**A.** < 1 µg/mL

**Q.** Which solubility does the source give for `COc1ccc(-c2nc(N[C@H](CO)Cc3ccccc3)ccc2C(=O)NCCOc2ccccc2)c(OC)n1` here?
**A.** 11 µg/mL (≈ 20.8 µM)
